Results on five compounds are retold here after paper PMC8140528 (Chemistry & biodiversity, 2021).

Read-outs that look alike come from different tables or passages of the source.

The test system of data set [1] is murine leukemia cells (L1210). The data set can be described thus: Antiproliferative effect on L1210 cells. In kind it is cell-based.
Data set [2] relates to human T-lymphocyte cells (CEM). Kind of data set: Antiproliferative effect on CEM cells. It is filed as cell-based. Conditions: read-out: IC50 CEM.
Data set [3] has as its system human cervix carcinoma cells (HeLa). Kind of data set: Antiproliferative effect on HeLa cells. It is filed as cell-based. Particulars: read-out: IC50 HeLa.
The subject of data set [4] is Jurkat cells. The data set can be described thus: Annexin V-FITC/PI assay. It is filed as cell-based, human. Conditions: 7g at CC50 (2.36 μM) and CC100 (4.72 μM), vs vehicle control.
Data set [5] has as its system Jurkat cells. Kind of data set: Cell cycle analysis. In kind it is cell-based, human.
In data set [6] the test system is L1210, CEM and HeLa cells. Kind of data set: Cytotoxicity screening over L1210, CEM and HeLa. In kind it is cell-based. Particulars: read-out: IC50 (range over the cell lines tested), L1210, CEM and HeLa together.
In data set [7] the test system is Jurkat cells. Kind of data set: Mitochondrial depolarization assay. In kind it is cell-based, human. Conditions: JC-1, flow cytometry, 5 h. (A flow cytometer gives signals particle by particle.)
The nature of data set [8]: Differential nuclear staining. In kind it is cell-based. Particulars: human, Hs27 non-cancerous fibroblast cells.
A short description of data set [9]: Differential nuclear staining. In kind it is cell-based. Particulars: human.
In data set [10] the test system is CCRF-CEM (Acute Lymphoblastic leukemia). The data set can be described thus: Differential nuclear staining. In kind it is cell-based. Conditions: Homo sapiens, CCRF-CEM, read-out: CC50 (death of 50% of the cells).
Data set [11] in a line: Differential nuclear staining. It is filed as cell-based. Particulars: human. The source holds these as a separate data set.
The subject of data set [12] is Jurkat (Acute T Cell Leukemia). Kind of data set: Differential nuclear staining. Particulars: Homo sapiens, Jurkat. It is filed as cell-based.
Data set [13] concerns caspase-3 in Jurkat cells. Kind of data set: Caspase-3 activation assay. It is filed as cell-based, human. Conditions: CC50 (2.36 μM) and CC100 (4.72 μM), 7 h, vs controls.
Setting [14] is: read-out: IC50 L1210, L1210 cells, mean ± SEM (n=3).
The mark [15] stands for this setting: cells treated with the CC50, 48 h.
Where [16] appears, read: Mus musculus, L1210, read-out: IC50 L1210.
Setting [17] is: read-out: CC50 (death of 50% of the cells).
[18] abbreviates: read-out: CC50 (range for compounds 7g and 8b).

In general, IC50 refers to the concentration that gives 50% inhibition. Turning to `COc1ccc(Cc2nn3cc(-c4cc5ccccc5oc4=O)nc3s2)cc1` [Compound 5h], the IC50 in data set [1] (setting [14]) was 90 ± 24 µM; in data set [2] (CEM cells, mean ± SEM (n=3)), 5 ± 3.3 µM; in data set [3] (HeLa cells, mean ± SEM (n=3)) it was 70 ± 4 µM.
The term CC50 denotes the concentration that lowers cell viability or growth by half. As to `COc1ccc(Cc2nn3c(SC#N)c(-c4cc5ccccc5oc4=O)nc3s2)cc1` [Compound 7g, 2-(4-methoxybenzyl)-6-(2-oxo-2H-chromen-3-yl)imidazo[2,1-b][1,3,4]thiadiazol-5-yl thiocyanate], the phosphatidylserine externalization entry in the data set on Jurkat cells [4] is “inducing phosphatidylserine externalization in a dose-response manner”. In addition, in the data set on Jurkat cells [5] (7g at CC50 (2.36 μM) and CC100 (4.72 μM), 48 h), the “sub-G0/G1 subpopulation (DNA fragmentation)” value is “increase in sub-G0/G1 subpopulation”. Further, the “cell population in G2-M phase” value with Jurkat cells [5] (48 h) is “increase of the cell population in the G2-M phase”. Also, the “cell population in S phase” value with Jurkat cells [5] (setting [15]) is reported as “increase of cell population in the S phase”. The “cell subpopulation in G0-G1 phase” value with Jurkat cells [5] (setting [15]) is given as “decrease of cell subpopulation in the G0-G1 phase”. For the same compound, the IC50 is 0.78 to 1.6 µM in data set [6]; 1.6 ± 0.2 µM in [1] (setting [16]); 0.79 ± 0.35 µM in data set [2] (Homo sapiens, CCRF-CEM); 0.78 ± 0.13 µM in [3] (Homo sapiens, HeLa). The mitochondrial membrane depolarization entry in the data set on Jurkat cells [7] was “not causing mitochondrial membrane depolarization”. The compound also gave a CC50 at 72 h in data set [8] of 31.4 ± 0.74 µM. The values for the selectivity ratio in data set [9] and in data set [11] were 6.65 and 13.3, respectively. For the same compound, the cytotoxic concentration (CC50) in [10] is 4.73 ± 0.22 µM; in data set [12] (setting [17]), 2.36 ± 0.1 µM; in data set [12] (setting [18]) it was 1.65 to 4.73 µM. For the same compound, the caspase-3 activation result in data set [13] is listed as “induced statistically significant activation of caspase-3”.
For `COc1ccc(Cc2nn3c(C=O)c(-c4ccc(Cl)cc4)nc3s2)cc1` [Compound 8b, 6-(4-chlorophenyl)-2-(4-methoxybenzyl)imidazo[2,1-b][1,3,4]thiadiazole-5-carbaldehyde], the IC50 in [6] is 0.94 to 1.3 µM; in data set [1] (setting [16]), 1.1 ± 0.2 µM; in [2] (Homo sapiens, CCRF-CEM) it was 0.94 ± 0.12 µM; in data set [3] (Homo sapiens, HeLa) it was 1.3 ± 0.2 µM. For the same compound, the CC50 at 72 h in data set [8] turned out to be 2.36 ± 0.03 µM. The selectivity ratio in [9] came out at 0.65; in [11], 1.43. Also, the CC50 in data set [10] was 3.62 ± 0.26 µM; in data set [12] (setting [17]), 1.65 ± 0.19 µM; in data set [12] (setting [18]), 1.65 to 4.73 µM.
`c1ccc([C@H]2CN3CCSC3=N2)cc1` [Levamisole, reference compound]: the IC50 in data set [2] (Homo sapiens, CCRF-CEM) is over 250 µM; in [3] (Homo sapiens, HeLa), over 250 µM.
Consider `N[C@@H](Cc1ccc(N(CCCl)CCCl)cc1)C(=O)O` [Melphalan, reference compound], for which the IC50 in [1] (setting [14]) came out at 2.13 ± 0.02 µM; in data set [2] (Homo sapiens, CCRF-CEM) it was 1.4 ± 0.4 µM.
